Entries after “also recorded” stand apart in the source; their conditions may differ. Values belong to the molecule of their own block, whether it stands above or below them.
Tests used:
RXR (GAL-L-RXR) = biological target: T1, RXR (GAL-L-RXR) (Homo sapiens, UniProt P19793); experiment: GAL4 chimera activation assay in CV-1 cells, UASG×4 reporter, GAL-L-RXR
T1 sequence (P19793 203-462): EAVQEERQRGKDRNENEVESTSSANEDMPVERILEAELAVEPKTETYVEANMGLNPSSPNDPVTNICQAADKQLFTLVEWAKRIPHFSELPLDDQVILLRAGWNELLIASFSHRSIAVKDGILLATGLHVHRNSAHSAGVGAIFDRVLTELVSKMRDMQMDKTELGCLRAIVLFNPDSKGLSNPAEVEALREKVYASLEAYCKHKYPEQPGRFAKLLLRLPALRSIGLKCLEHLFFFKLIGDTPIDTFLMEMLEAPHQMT
Description: CV-1 cells were transiently transfected with a UASG×4 reporter and expression vectors for β-galactosidase and either GAL-L-RXR or the GAL-L-RXRm LBD mutant.
Confirmation of the analytical procedure was achieved by testing FXR-RXR and FXR-RXRm dimers for activation by RXR and FXR ligands. […] This type of assay therefore can specifically discriminate between activation by RXR ligands and FXR ligands.

FXR-RXR heterodimers [1] = biological target: T2, FXR-RXR heterodimers (Rattus norvegicus, UniProt Q62735); experiment: Transient transfection activation assay in CV-1 cells, EcRE×6 reporter, FXR + RXR; format: cell-based
T2 sequence (Q62735 1-469): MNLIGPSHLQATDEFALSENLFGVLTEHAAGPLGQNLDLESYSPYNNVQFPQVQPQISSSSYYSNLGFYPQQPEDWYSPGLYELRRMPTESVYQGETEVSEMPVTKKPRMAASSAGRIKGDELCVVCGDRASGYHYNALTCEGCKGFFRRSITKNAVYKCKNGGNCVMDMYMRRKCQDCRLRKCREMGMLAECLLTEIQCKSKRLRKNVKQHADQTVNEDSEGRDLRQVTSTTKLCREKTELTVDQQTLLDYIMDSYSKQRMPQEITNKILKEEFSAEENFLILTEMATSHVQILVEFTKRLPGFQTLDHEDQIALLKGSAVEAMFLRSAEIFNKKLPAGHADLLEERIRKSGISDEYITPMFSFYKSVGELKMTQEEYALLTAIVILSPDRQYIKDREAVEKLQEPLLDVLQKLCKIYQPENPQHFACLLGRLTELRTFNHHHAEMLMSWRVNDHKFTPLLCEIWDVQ
T2 sequence (P19793 1-462 partner): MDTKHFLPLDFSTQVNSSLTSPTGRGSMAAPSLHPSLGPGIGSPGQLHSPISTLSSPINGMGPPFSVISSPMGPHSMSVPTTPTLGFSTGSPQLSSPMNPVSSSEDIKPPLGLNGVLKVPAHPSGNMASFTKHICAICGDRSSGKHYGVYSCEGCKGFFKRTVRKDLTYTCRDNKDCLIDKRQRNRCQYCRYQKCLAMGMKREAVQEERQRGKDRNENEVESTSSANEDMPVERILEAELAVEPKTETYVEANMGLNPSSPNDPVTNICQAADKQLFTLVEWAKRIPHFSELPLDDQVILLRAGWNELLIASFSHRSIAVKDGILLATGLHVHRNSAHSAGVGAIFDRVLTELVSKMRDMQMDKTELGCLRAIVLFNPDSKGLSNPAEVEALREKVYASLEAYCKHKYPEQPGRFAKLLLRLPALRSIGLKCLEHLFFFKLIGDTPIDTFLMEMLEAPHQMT
Description: Suitable reporter gene constructs are well known to skilled workers in the fields of biochemistry and molecular biology. Reporter/receptor pairs used in the assay reported in FIG. 1 are listed in Table I. All transfections additionally contained CMV-βgal as an internal control. Suitable constructs for use in the these studies may conveniently be cloned into pCMV. pCMV contains the cytomegalovirus promoter/enhancer followed by a bacteriophage T7 promoter for transcription in vitro. Other vectors known in the art can be used in the methods of the present invention.
(§1) CV-1 cells for the activation assays were grown in Dulbecco's modified Eagle's medium supplemented with 10% resin charcoal-stripped fetal bovine serum, 50 U/ml penicillin G and 50 μg/ml streptomycin sulfate (DMEM-FBS) at 37° C. in 5% CO2. One day prior to transfection, cells were plated to 50-80% confluence using phenol red free DMEM-FBS.
The cells were transiently transfected by lipofection. Reporter constructs (300 ng/10^5 cells) and cytomegalovirus-driven expression vectors (20-50 ng/10^5 cells) were added, with CMV-β-gal (500 ng/10^5 cells) as an internal control. After 2 hours, the liposomes were removed and the cells were treated for approximately 45 hours with phenol red free DMEM-FBS containing the test bile acid and other compounds.
Any compound which is a candidate for activation of FXR may be tested by this method. […] After exposure to ligand, the cells were harvested and assayed for β-galactosidase activity (control) and activity of the specific reporter gene.
Activity of the reporter gene can be conveniently normalized to the internal control and the data plotted as fold activation relative to untreated cells.
(§2) A variety of commercially available bile acids (Sigma) were tested for their ability to activate known FXR-RXR (FIG. 9; left panel) and FXR-RXRm (FIG. 9, right panel).
as §1, with “cells” for “cells for the activation assays”, “Modified” for “modified”, “resin-charcoal stripped” for “resin charcoal-stripped”, “phenol-red” for “phenol red”

FXR-RXR heterodimers [2] = biological target: T3, FXR-RXR heterodimers (Rattus norvegicus, UniProt Q62735); experiment: In vitro coactivator recruitment assay (mobility shift), FXR + RXR, GST-GRIP1; format: biochemical
T3 sequence (Q62735 1-469): T2 sequence (Q62735 1-469)
T3 sequence (P19793 1-462 partner): T2 sequence (P19793 1-462 partner)
T3 sequence (Q61026 625-765 partner limits assumed): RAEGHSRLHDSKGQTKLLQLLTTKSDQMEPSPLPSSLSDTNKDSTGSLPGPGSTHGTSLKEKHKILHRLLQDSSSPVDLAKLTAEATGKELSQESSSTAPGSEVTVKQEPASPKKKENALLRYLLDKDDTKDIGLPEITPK

FXR = biological target: T4, FXR (Rattus norvegicus, UniProt Q62735); experiment: Transient transfection assay, FXR + RXR with liver bile acid transporter; format: cell-based; conditions: for EC50: with the liver bile acid transporter
T4 sequence (Q62735 1-469): T2 sequence (Q62735 1-469)
T4 sequence (P19793 1-462 partner): T2 sequence (P19793 1-462 partner)
Description: The liver and ileum express tissue-specific bile acid transport proteins for efficient uptake of these compounds. […] CV-1 cells therefore were co-transfected with a human liver bile acid transporter (accession L21893). Use of this transporter allows hydrophilic bile acid or bile acid-derived compounds or compounds, which due to their structural similarity to bile acid are transported by the transporter, to be tested for activation of the intracellular bile acid nuclear receptor. […] Any suitable non-specific transporter may also be used.
After transfection, cells were treated with 100 μM concentrations of the indicated bile acid.
In addition to the structure-activity studies, dose-response analyses were performed for some bile acid nuclear receptor ligands. For these analyses, shown in FIG. 11, CV-1 cells were transfected as above, with the liver bile acid transporter, and treated with the indicated varying concentrations of each bile acid.

[3] = test system: RXRα; PPARα, γ and δ; VDR; T3Rβ; RAR; PXR; LXRα and CARβ; experiment: Activation of other receptors by CDCA (data not shown)
[4] = test system: FXR derived from human, rat and mouse; experiment: Antagonism of CDCA activation of FXR in CV-1 cells; format: cell-based; conditions: 50 μM CDCA, 20 μM azole compound
Protocol: The FXR receptor activation assays disclosed herein may be used not only to test compounds for activation of FXR as above, but also for compounds which antagonize FXR activation. […] See Example 7.
CV-1 cells were grown in DMEM supplemented with 10% resin-charcoal stripped fetal bovine serum, 50 U/ml penicillin G and 50 μg/ml streptomycin sulfate at 37° C. in 5% CO2. Cells were plated to 50-80% confluence one day prior to transfection using phenol red-free DMEM-FBS. The cells were transfected by lipofection using N-[1-(2,3-dioleoyloxy)propyl]-N,N,N-ammonium methyl sulfate according to manufacture's instructions (Boehringer Mannheim). The cells were transfected with a CMV expression vector containing the FXR indicated in FIG. 16 (none, −; human, hFXR; rat, rFXR; or mouse, mFXR) and RXR. The luciferase reporter construct contained the herpesvirus thymidine kinase promoter (−105/+51) linked to six copies of the response element hsp27 EcRE. […] After exposure to the agonist and candidate antagonist compounds, cells were harvested and assayed for luciferase and β-galactosidase activity. […] Therefore, clotrimazole, Compound A and Compound B were selected from the screen as FXR receptor antagonists.

FXR-RXRm = biological target: T5, FXR-RXRm (Rattus norvegicus, UniProt Q62735); experiment: Transient transfection activation assay in CV-1 cells, FXR + RXRm; format: cell-based; conditions: 100 nM
T5 sequence (Q62735 1-469): T2 sequence (Q62735 1-469)
Protocol: as §2
as §1, with “cells” for “cells for the activation assays”, “Modified” for “modified”, “resin-charcoal stripped” for “resin charcoal-stripped”, “phenol-red” for “phenol red”

FXR + RXRm = biological target: T6, FXR + RXRm (Rattus norvegicus, UniProt Q62735); experiment: In vitro coactivator recruitment assay (mobility shift), FXR + RXRm, GST-GRIP1; format: biochemical
T6 sequence (Q62735 1-469): T2 sequence (Q62735 1-469)
T6 sequence (Q61026 625-765 partner): T3 sequence (Q61026 625-765 partner limits assumed)
Protocol: In vitro coactivator recruitment assays were performed by adding the ligand to a mixture of the following components: FXR, 9-cis retinoic acid receptor, a coactivator, and a labeled FXR response element (probe). A polyamino acid containing the receptor interaction domains of co-activator GRIP1 may be used as the coactivator, however any functional coactivator or coactivator complex is contemplated for use in this assay. GRIP1 was expressed in bacteria and purified for these assays. The GST-GRIP1 construct, containing the three receptor interaction domains of mouse GRIP1 (Arg 625-Lys 765, accession U39060) fused to glutathione-S-transferase, was created for bacterial expression of the GRIP1 coactivator. […] Response elements suitable for use in this assay may be any nucleic acid probe which is substantially homologous to the target DNA sequence of the bile acid nuclear receptor.
After addition of the putative ligand to the mixture of components describe above and mixing, the mixture is incubated under conditions. […] Techniques such as, for example, thin layer chromatography, high pressure liquid chromatography, size exclusion chromatography, sedimentation, immunoseparation techniques, or any other convenient method known in the art may be used.
To distinguish between binding through the FXR and RXR subunits, the coactivator recruitment assays were repeated substituting RXRm for RXR. […]

[5] = bile acids 100 μM, no bile acid transporter

Compound: C[C@H](CCC(=O)O)[C@H]1CC[C@H]2[C@@H]3[C@H](O)C[C@@H]4C[C@H](O)CC[C@]4(C)[C@H]3CC[C@]12C (single isomer, unassigned) [peak Z, chenodeoxycholic acid]
effect on RXR (RXR (GAL-L-RXR); HPLC fractions, 25 μg/ml): no effect

Compound: C[C@H](CCC(=O)O)[C@H]1CC[C@H]2[C@@H]3C(=O)C[C@@H]4C[C@H](O)CC[C@]4(C)[C@H]3CC[C@]12C [7-ketolithocholic acid, 5β-cholanic acid-3α-ol-7-one]
activity as FXR activator (FXR-RXR heterodimers [1]; [5]): activity intermediate between CDCA and UDCA

activity as FXR activator (FXR-RXR heterodimers [1]; [5]): inactive
coactivator recruitment by FXR-RXR (FXR-RXR heterodimers [2]): less effective
activation of FXR (FXR; 100 μM, coexpression of the liver bile acid transporter): 170 fold
Compound: C[C@H](CCC(=O)O)[C@H]1CC[C@H]2[C@@H]3[C@H](O)C[C@@H]4C[C@H](O)CC[C@]4(C)[C@H]3C[C@H](O)[C@]12C [CA, cholic acid]

Compound: C[C@H](CCC(=O)O)[C@H]1CC[C@H]2[C@@H]3[C@H](O)C[C@@H]4C[C@H](O)CC[C@]4(C)[C@H]3CC[C@]12C [CDCA, chenodeoxycholic acid]
activation of other receptors [3]: failed to activate
activation of GAL-L-RXR chimera (RXR (GAL-L-RXR)): did not activate

Compound: FC(F)(F)c1cccc(C(c2ccccc2)(c2ccccc2)n2ccnc2)c1 [Compound A]
antagonism of CDCA activation of FXR [4]: displayed antagonist properties; also recorded: significant but weak activity

Compound: c1ccc(-c2cn(C(c3ccccc3)(c3ccccc3)c3ccccc3)cn2)cc1 [Compound B]
antagonism of CDCA activation of FXR [4]: displayed antagonist properties; also recorded: demonstrate inhibition of FXR activation

EC50 (FXR): ~50 µM
Compound: C[C@H](CCC(=O)O)[C@H]1CC[C@H]2[C@@H]3CC[C@@H]4C[C@H](O)CC[C@]4(C)[C@H]3C[C@H](O)[C@]12C [DCA, deoxycholic acid]

Compound: COC(=O)/C=C(\C)CC/C=C(\C)CC[C@H]1OC1(C)C [JH III, juvenile hormone III]
activity as FXR activator (FXR-RXR heterodimers [1]; 50 μM): far weaker activity relative to the most efficacious bile acids

EC50 (FXR): ~50 µM
Compound: C[C@H](CCC(=O)O)[C@H]1CC[C@H]2[C@@H]3CC[C@@H]4C[C@H](O)CC[C@]4(C)[C@H]3CC[C@]12C [LCA, lithocholic acid]

Compound: Cc1cc2c(cc1C1(c3ccc(C(=O)O)cn3)CC1)C(C)(C)CCC2(C)C [LG268]
response of FXR-RXRm (FXR-RXRm): little or no response

Compound: Clc1ccccc1C(c1ccccc1)(c1ccccc1)n1ccnc1 [clotrimazole]
antagonism of CDCA activation of FXR [4]: strongest effect; also recorded: strongly active

coactivator recruitment by FXR-RXRm (FXR + RXRm): recruited coactivator
Compound: C[C@H](CCC(=O)NCC(=O)O)[C@H]1CC[C@H]2[C@@H]3CC[C@@H]4C[C@H](O)CC[C@]4(C)[C@H]3CC[C@]12C [glyco-LCA]

activity as FXR activator (FXR-RXR heterodimers [1]; [5]): inactive
Compound: C[C@H](CCC(=O)O)[C@H]1CC[C@H]2[C@@H]3[C@H](O)[C@H](O)[C@@H]4C[C@H](O)CC[C@]4(C)[C@H]3CC[C@]12C [hyocholic]

Compound: CC(=O)N1CCN(c2ccc(OCC3COC(Cn4ccnc4)(c4ccc(Cl)cc4Cl)O3)cc2)CC1 (stereo not shown) [ketonazole]
antagonism of CDCA activation of FXR [4]: inactive

activity as FXR activator (FXR-RXR heterodimers [1]; [5]): inactive
Compound: C[C@H](CCC(=O)O)[C@H]1CC[C@H]2[C@@H]3C[C@@H](O)[C@@H]4C[C@H](O)CC[C@]4(C)[C@H]3CC[C@]12C [murocholic acid]

activity as FXR activator (FXR-RXR heterodimers [1]; [5]): inactive
Compound: C[C@H](CCC(=O)O)[C@H]1CC[C@H]2[C@@H]3[C@H](O)[C@@H](O)[C@@H]4C[C@H](O)CC[C@]4(C)[C@H]3CC[C@]12C [α-muricholic acid]
